Among the data in ChEMBL document CHEMBL1133477, “Discovery of novel p-arylthio cinnamides as antagonists of leukocyte function-associated antigen-1/intracellular adhesion molecule-1 interaction. 1. Identification of an additional binding pocket based on an anilino diaryl sulfide lead” (J Med Chem, 2000) are IC50 values, retold here.

In the first assay the target is T1, Intercellular adhesion molecule (ICAM-1), Integrin alpha-L/beta-2 (Homo sapiens, UniProt P05107+P20701). In words: Inhibition against binding of LFA-1 to ICAM-1. The class given is protein-complex assay.
T1 sequence (P20701 whole entry): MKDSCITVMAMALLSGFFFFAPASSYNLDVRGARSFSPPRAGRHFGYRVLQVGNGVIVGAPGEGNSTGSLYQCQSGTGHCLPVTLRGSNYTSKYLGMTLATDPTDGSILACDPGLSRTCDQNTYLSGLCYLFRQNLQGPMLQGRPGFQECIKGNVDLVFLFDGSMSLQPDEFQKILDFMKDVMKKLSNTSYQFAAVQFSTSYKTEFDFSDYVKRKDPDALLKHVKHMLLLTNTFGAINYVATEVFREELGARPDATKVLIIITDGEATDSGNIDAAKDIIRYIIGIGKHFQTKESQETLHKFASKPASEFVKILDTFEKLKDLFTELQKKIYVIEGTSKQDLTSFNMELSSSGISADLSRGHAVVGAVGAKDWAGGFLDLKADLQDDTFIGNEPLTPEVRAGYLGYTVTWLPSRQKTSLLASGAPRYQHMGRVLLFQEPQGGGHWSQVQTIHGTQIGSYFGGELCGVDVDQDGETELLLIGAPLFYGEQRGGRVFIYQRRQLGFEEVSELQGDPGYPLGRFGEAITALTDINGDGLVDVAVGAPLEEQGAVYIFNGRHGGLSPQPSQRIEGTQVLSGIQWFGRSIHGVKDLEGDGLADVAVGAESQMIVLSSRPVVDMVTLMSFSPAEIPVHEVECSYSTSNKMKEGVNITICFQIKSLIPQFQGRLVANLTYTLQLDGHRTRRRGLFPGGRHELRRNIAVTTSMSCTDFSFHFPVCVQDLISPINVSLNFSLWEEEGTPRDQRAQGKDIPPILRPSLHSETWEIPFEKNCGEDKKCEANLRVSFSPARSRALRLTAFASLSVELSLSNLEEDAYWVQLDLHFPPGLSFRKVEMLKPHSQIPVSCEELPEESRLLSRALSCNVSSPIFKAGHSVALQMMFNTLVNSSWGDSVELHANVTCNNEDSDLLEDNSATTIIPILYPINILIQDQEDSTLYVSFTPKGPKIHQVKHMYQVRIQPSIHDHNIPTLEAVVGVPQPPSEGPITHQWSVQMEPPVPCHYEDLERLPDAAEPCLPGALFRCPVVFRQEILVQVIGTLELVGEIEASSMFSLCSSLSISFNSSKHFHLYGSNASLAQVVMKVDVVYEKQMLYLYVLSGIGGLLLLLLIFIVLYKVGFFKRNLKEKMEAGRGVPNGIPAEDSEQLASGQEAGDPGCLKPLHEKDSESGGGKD
T1 sequence (P05362 whole entry, further chain): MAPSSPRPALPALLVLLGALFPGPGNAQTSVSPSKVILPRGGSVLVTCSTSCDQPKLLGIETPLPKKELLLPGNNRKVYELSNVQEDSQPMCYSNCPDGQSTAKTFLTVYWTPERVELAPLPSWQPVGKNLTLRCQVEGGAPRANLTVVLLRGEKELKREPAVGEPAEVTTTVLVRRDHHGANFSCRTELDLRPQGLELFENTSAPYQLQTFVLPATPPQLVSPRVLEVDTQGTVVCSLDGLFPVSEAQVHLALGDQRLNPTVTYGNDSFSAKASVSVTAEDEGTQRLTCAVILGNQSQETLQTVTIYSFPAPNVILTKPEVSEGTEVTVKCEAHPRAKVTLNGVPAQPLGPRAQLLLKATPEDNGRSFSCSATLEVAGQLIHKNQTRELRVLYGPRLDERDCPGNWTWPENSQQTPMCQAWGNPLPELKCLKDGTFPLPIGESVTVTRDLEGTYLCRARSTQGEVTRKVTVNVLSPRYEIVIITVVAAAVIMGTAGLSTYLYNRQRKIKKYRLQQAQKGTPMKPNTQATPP
T1 sequence (P05107 whole entry): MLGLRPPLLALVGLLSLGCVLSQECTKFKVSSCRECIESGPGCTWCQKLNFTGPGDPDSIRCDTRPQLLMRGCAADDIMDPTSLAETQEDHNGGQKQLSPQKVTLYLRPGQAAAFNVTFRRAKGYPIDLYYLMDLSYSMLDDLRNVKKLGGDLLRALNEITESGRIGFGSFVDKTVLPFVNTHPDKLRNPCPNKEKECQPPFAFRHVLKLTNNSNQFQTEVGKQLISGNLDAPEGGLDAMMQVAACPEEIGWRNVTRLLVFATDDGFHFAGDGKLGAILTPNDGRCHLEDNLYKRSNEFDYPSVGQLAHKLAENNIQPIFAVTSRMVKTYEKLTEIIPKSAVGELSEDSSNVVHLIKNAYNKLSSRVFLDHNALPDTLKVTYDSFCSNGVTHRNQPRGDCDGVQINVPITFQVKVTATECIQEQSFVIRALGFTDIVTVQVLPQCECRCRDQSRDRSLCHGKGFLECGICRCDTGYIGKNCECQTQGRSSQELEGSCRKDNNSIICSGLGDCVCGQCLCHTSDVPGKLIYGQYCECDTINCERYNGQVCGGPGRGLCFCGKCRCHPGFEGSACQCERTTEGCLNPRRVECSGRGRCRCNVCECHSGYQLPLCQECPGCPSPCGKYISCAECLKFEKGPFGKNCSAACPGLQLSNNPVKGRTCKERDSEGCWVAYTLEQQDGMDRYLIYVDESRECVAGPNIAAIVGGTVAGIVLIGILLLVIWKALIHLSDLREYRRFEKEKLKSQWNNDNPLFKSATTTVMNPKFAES
The IC50 is the concentration at which inhibition is half-maximal. Higher therefore signals lower potency. `Nc1ccc(Sc2ccc(Cl)cc2Cl)c(Cl)c1` had an IC50 of 1700 nM.
The same measure, in the same setting: in the case of `CN(C)CCN1c2ccccc2Sc2ccc(Cl)cc21` [CHOLRPHENETHAZINE] it was 28000 nM.

A further assay has as its target T1, Intercellular adhesion molecule (ICAM-1), Integrin alpha-L/beta-2. In words: Ability to block the interaction between integrin LFA-1 and its adhesion partner ICAM-1 in a time-resolved fluorescent LFA-1/ICAM-1 biochemical interaction assay. The class given is protein-complex assay.
The compound `CC(=O)N1CCN(C(=O)/C=C/c2ccc(Sc3ccc(Cl)cc3Cl)c(Cl)c2)CC1` showed an IC50 of 140 nM.
On the same count and under the same terms, in the case of `O=C(/C=C/c1ccccc1Sc1ccc(Cl)cc1Cl)NCCCn1ccnc1` it was 960 nM; in that of `O=CN1CCN(Cc2ccccc2Sc2ccc(/C=C/C(=O)N3CCOCC3)cc2Cl)CC1`, 420 nM; in that of `CC(=O)N1CCN(C(=O)/C=C/c2ccc(Sc3ccccc3Cl)c([N+](=O)[O-])c2)CC1`, 110 nM.
Same read-out and setting: under `O=C(/C=C/c1ccccc1Sc1ccc(Cl)cc1Cl)NCCCCCCO` stands 100000 nM.
Turning to `O=C(/C=C/c1cccc(Sc2ccc(Cl)cc2Cl)c1)N(CCO)CCO`, the IC50 was found to be 15000 nM.
The same measure, in the same setting: in the case of `O=C(/C=C/c1ccccc1Sc1ccc(Cl)cc1Cl)NCC1CCCO1` (centres undefined) it was 2100 nM; in that of `CC(=O)N1CCN(C(=O)/C=C/c2ccc(Sc3ccccc3N)c([N+](=O)[O-])c2)CC1`, 620 nM; in that of `O=C(/C=C/c1ccccc1Sc1ccc(Cl)cc1Cl)N1CCOCC1`, 1200 nM.
Turning to `CC(=O)N1CCN(C(=O)/C=C/c2ccc(Sc3ccc(Cl)cc3Cl)c([N+](=O)[O-])c2)CC1`, it took 90 nM to reach half-maximal inhibition (IC50).
Still for that read-out and setting: in the case of `O=C(/C=C/c1ccccc1Sc1ccc(Cl)cc1Cl)NCC(O)CO` (centres undefined) it was 3800 nM.
Compound `O=C(/C=C/c1ccc(Sc2ccc(Cl)cc2Cl)c(Cl)c1)N1CCN(c2ccccn2)CC1` showed an IC50 of 750 nM.
On to `O=C(/C=C/c1ccc(Sc2ccc(Cl)cc2Cl)c(/C=C/C(=O)N2CCOCC2)c1)N1CCOCC1`, for which the IC50 was above 20000 nM.
Still for that read-out and setting: under `CC(=O)N1CCN(C(=O)/C=C/c2ccc(Sc3cccc(Cl)c3Cl)c([N+](=O)[O-])c2)CC1` stands 100 nM.
In turn, `CC(=O)N1CCN(C(=O)/C=C/c2ccc(Sc3ccccc3C=O)c([N+](=O)[O-])c2)CC1` came in with an IC50 of 60 nM.
The compound `CN(C)CCC(=O)Nc1ccccc1Sc1ccc(Cl)cc1Cl` registered an IC50 of 82000 nM.
`CN1CCN(CCC(=O)Nc2ccccc2Sc2ccc(Cl)cc2Cl)CC1`: half-maximal inhibition (IC50) required 33000 nM.
Same read-out and setting: in the case of `O=C(/C=C/c1ccc(Sc2ccc(Cl)cc2Cl)c(/C=C/C(=O)N2CCOCC2)c1)NCCCN1CCCC1=O` it was above 20000 nM; in that of `O=C(/C=C/c1ccc(Sc2ccccc2CN2CCOCC2)c(Cl)c1)N1CCOCC1`, 150 nM; in that of `CCc1ccccc1Sc1ccc(/C=C/C(=O)N2CCN(C(C)=O)CC2)cc1[N+](=O)[O-]`, 65 nM.
On to `O=C(O)c1cc(/C=C/C(=O)N2CCOCC2)ccc1Sc1ccc(Cl)cc1Cl`, for which the 50% inhibitory concentration (IC50) was above 20000 nM.
On the same count and under the same terms, under `CN(CCC(=O)Nc1ccccc1Sc1ccc(Cl)cc1Cl)Cc1ccccc1` stands above 100000 nM; under `Clc1ccc(Sc2ccccc2NCCCN2CCOCC2)c(Cl)c1`, 140 nM.
Still for that read-out and setting: under `CC(=O)N1CCN(C(=O)/C=C/c2ccc(Sc3ccccc3C(N)=O)c([N+](=O)[O-])c2)CC1` stands 16200 nM; under `O=C(/C=C/c1ccccc1Sc1ccc(Cl)cc1Cl)NCCc1ccccc1`, above 100000 nM.
`CC(=O)N1CCN(C(=O)/C=C/c2ccc(Sc3ccccc3C)c([N+](=O)[O-])c2)CC1` registered an IC50 of 120 nM.
For the compound `O=C(/C=C/c1ccc(Sc2ccc(Cl)cc2Cl)c(Cl)c1)NCCCn1ccnc1`, the IC50 is 1400 nM.
For the compound `O=C(/C=C/c1cccc(Sc2ccc(Cl)cc2Cl)c1)N1CCOCC1`, the IC50 is 16500 nM.
`O=C(/C=C/c1ccc(Sc2ccc(Cl)cc2Cl)c(Cl)c1)NCCCCCCO` showed an IC50 of 590 nM.
The same measure, in the same setting: in the case of `CC(=O)N1CCN(C(=O)/C=C/c2ccc(Sc3ccccc3C(C)(C)C)c([N+](=O)[O-])c2)CC1` it was 530 nM; in that of `O=Cc1cc(/C=C/C(=O)N2CCOCC2)ccc1Sc1ccc(Cl)cc1Cl`, 610 nM.
The compound `O=C(/C=C/c1ccc(Sc2ccc(Cl)cc2Cl)c(NCCCN2CCOCC2)c1)NCCCN1CCCC1=O` returned an IC50 of 15500 nM.
The compound `O=C(/C=C/c1ccc(Sc2ccc(Cl)cc2Cl)c(Br)c1)NCCCN1CCCC1=O` showed an IC50 of 650 nM.
The compound `O=C(/C=C/c1ccccc1Sc1ccc(Cl)cc1Cl)NCCO` gave an IC50 of 3300 nM.
`O=C(/C=C/c1ccc(Sc2ccc(Cl)cc2Cl)c(Cl)c1)N(CCO)CCO` gave a 50% inhibitory concentration (IC50) of 710 nM.
In turn, `Cc1cccc2sc(NC(=O)/C=C/c3ccccc3Sc3ccc(Cl)cc3Cl)nc12` registered a half-maximal inhibitory concentration (IC50) above 100000 nM.
Compound `Nc1cc(/C=C/C(=O)NCCCN2CCCC2=O)ccc1Sc1ccc(Cl)cc1Cl` gave an IC50 of 19000 nM.
As for `O=C(O)/C=C/c1ccc(Sc2ccc(Cl)cc2Cl)c(Cl)c1`, the IC50 turned out to be 2600 nM.
As to `CCOC(=O)CN(C)Cc1ccccc1Sc1ccc(/C=C/C(=O)N2CCOCC2)cc1Cl`, half-maximal inhibition (IC50) required 260 nM.
Turning to `CCCN(CCC)CCC(=O)Nc1ccccc1Sc1ccc(Cl)cc1Cl`, the IC50 came to 61000 nM.
Compound `CC(=O)N1CCN(C(=O)/C=C/c2ccc(Sc3ccc(Cl)cc3Cl)c(/C=C/C(=O)N3CCOCC3)c2)CC1` gave an IC50 of 18000 nM.
For `O=C(/C=C/c1ccc(Sc2ccccc2CN2CCN(Cc3ccc4c(c3)OCO4)CC2)c(Cl)c1)N1CCOCC1`, half-maximal inhibition (IC50) was put at 100 nM.
The same measure, in the same setting: in the case of `O=C(/C=C/c1ccc(Sc2ccc(Cl)cc2Cl)c(Cl)c1)NCCO` it was 920 nM; in that of `O=C(/C=C/c1ccc(Sc2ccc(Cl)cc2Cl)c(Cl)c1)NCCCN1CCCC1=O`, 550 nM.
Same read-out and setting: in the case of `CN1CCN(C(=O)/C=C/c2ccc(Sc3ccc(Cl)cc3Cl)c(Cl)c2)CC1` it was 1100 nM; in that of `O=C(CCN1CCCC1)Nc1ccccc1Sc1ccc(Cl)cc1Cl`, above 10000 nM; in that of `O=C(O)CNC(=O)/C=C/c1ccccc1Sc1ccc(Cl)cc1Cl`, 3900 nM.
On the same count and under the same terms, under `O=C(/C=C/c1ccccc1Sc1ccc(Cl)cc1Cl)N(CCO)CCO` stands 2300 nM.
Compound `O=C(/C=C/c1cccc(Sc2ccc(Cl)cc2Cl)c1)NCCCn1ccnc1` displayed an IC50 of 7000 nM.
Still for that read-out and setting: under `CN(C)CCNCc1ccccc1Sc1ccc(Cl)cc1Cl` stands 5600 nM; under `O=C(CCN1CCOCC1)Nc1ccccc1Sc1ccc(Cl)cc1Cl`, 12000 nM.
The same measure, in the same setting: under `O=C(/C=C/c1ccc(Sc2ccccc2/C=C/C(=O)N2CCOCC2)c(Cl)c1)N1CCOCC1` stands 180 nM.
For the compound `O=C(/C=C/c1ccccc1Sc1ccc(Cl)cc1Cl)NCCCN1CCCC1=O`, 1600 nM corresponded to half-maximal inhibition (IC50).
The same measure, in the same setting: under `O=C(O)/C=C/c1ccccc1Sc1ccc(Cl)cc1Cl` stands 2600 nM.
On the same count and under the same terms, under `CC(=O)N1CCN(C(=O)/C=C/c2ccc(Sc3ccccc3N(C)C)c([N+](=O)[O-])c2)CC1` stands 310 nM; under `O=C(/C=C/c1cccc(Sc2ccc(Cl)cc2Cl)c1)NCCCCCCO`, 9800 nM; under `O=C(/C=C/c1ccc(Sc2ccc(Cl)cc2Cl)c(Cl)c1)N1CCOCC1`, 460 nM.
Regarding `O=C(/C=C/c1ccccc1Sc1ccc(Cl)cc1Cl)N(Cc1ccccc1)Cc1ccc(Oc2ccccc2)cc1`, the IC50 was above 100000 nM.
`O=C(/C=C/c1ccc(Sc2ccc(Cl)cc2Cl)c([N+](=O)[O-])c1)NCCCN1CCCC1=O` returned an IC50 of 170 nM.
In turn, `NC(=O)c1cc(/C=C/C(=O)N2CCOCC2)ccc1Sc1ccc(Cl)cc1Cl` came in with an IC50 above 20000 nM.
In turn, `O=C(/C=C/c1ccc(Sc2ccccc2NCCCN2CCOCC2)c(Cl)c1)N1CCOCC1` returned an IC50 of 180 nM.
Still for that read-out and setting: in the case of `O=C(/C=C/c1cccc(Sc2ccc(Cl)cc2Cl)c1)NCCCN1CCCC1=O` it was 4500 nM.
